# Data taken from US5495032A, “Process for producing 7-(substituted)-8-(substituted-9-[(substituted glycyl)amido]-6-demethyl-6-deoxytetracyclines” (priority 1994, dated 1996).
# Where two headings read alike, the source gives them in different places.
# Columns and labels:
# Type in all cases: cell-based
# [1] = system: S. aureus UBMS 88-7 Tet K; assay: microbe, parasite or virus in culture; details: 18 hours at 35° C.
# [2] = system: S. aureus ROSE (MP); assay: MIC, agar dilution method; details: 18 hours at 35° C.
# [3] = system: E. coli J2175; assay: MIC, agar dilution method; details: 18 hours at 35° C.
# [4] = system: E. coli MC 4100 TNIOC Tet B; assay: microbe, parasite or virus in culture; details: 18 hours at 35° C.
# [5] = system: E. faecalis ATCC 29212; assay: MIC, agar dilution method; details: Enterococcus faecalis, ATCC29212, 18 h, 18 hours at 35° C.
# [6] = system: S. aureus IVES 2943; assay: MIC, agar dilution method
# [7] = system: E. coli UBMS 89-2 Tet sens; assay: MIC, agar dilution method; details: 18 hours at 35° C.
# [8] = system: S. aureus IVES 1 983; assay: MIC, agar dilution method
# [9] = system: E. coli #311 (MP); assay: MIC, agar dilution method; details: 18 hours at 35° C.
# [10] = system: S. aureus UBMS 90-1 Tet M; assay: microbe, parasite or virus in culture; details: 18 hours at 35° C.
# [11] = system: E. coli ATCC 25922; assay: MIC, agar dilution method
# [12] = system: S. aureus SMITH (MP); assay: MIC, agar dilution method; details: 18 hours at 35° C.
# [13] = system: Ps. acruginosa ATCC 27853; assay: MIC, agar dilution method; details: Ps. acruginosa ATCC 27853; 18 hours at 35° C.; read-out: MIC
# [14] = system: X. maltophilia NEMC 87210; assay: MIC, agar dilution method; details: Stenotrophomonas maltophilia, NEMC87210, 18 hours at 35° C., read-out: MIC
# [15] = system: E. coli MC 4100 Tet sens.; assay: MIC, agar dilution method; details: Escherichia coli, 18 hours at 35° C., read-out: MIC
# [16] = system: S. aureus UBMS 88-5 Tet M; assay: microbe, parasite or virus in culture
# [17] = system: E. coli PRP1 Tet A; assay: microbe, parasite or virus in culture; details: 18 hours at 35° C.
# [18] = system: S. aureus UBMS 90-3; assay: MIC, agar dilution method
# [19] = system: E. coli BAJ9003 IMP MUT; assay: microbe, parasite or virus in culture; details: 18 hours at 35° C.
# [20] = system: E. coli UBMS 89-1 Tet M; assay: microbe, parasite or virus in culture; details: 18 hours at 35° C.
# [21] = system: S. aureus ATCC 29213; assay: MIC, agar dilution method; details: 18 hours at 35° C.
# [22] = system: E. coli UBMS 88-1 Tet B; assay: microbe, parasite or virus in culture; details: 18 hours at 35° C.
# [23] = system: S. hemolyticus AVHAH 88-3; assay: MIC, agar dilution method
# [24] = system: E. coli UBMS 90-4 Tet M; assay: microbe, parasite or virus in culture; details: 18 hours at 35° C.
# [25] = system: E. coli UBMS 90-5 sens; assay: MIC, agar dilution method; details: 18 hours at 35° C.
# [26] = system: E. coli J3272 Tet D; assay: microbe, parasite or virus in culture
# [27] = system: S. aureus UBMS 88-4; assay: MIC, agar dilution method
# [28] = system: Enterococcus 12201; assay: MIC, agar dilution method; details: 18 hours at 35° C.
# [29] = system: S. aureus NEMC 8769; assay: MIC, agar dilution method; details: Staphylococcus aureus, NEMC8769, 18 h
# [30] = system: S. mariescens FPOR 8733; assay: MIC, agar dilution method; details: 18 hours at 35° C.
# [31] = system: E. coli J3272 Tet C; assay: microbe, parasite or virus in culture
# [32] = system: S. aureus UBMS 90-2 Tet M; assay: microbe, parasite or virus in culture; details: 18 hours at 35° C.
# [33] = Escherichia coli, read-out: MIC
structure (smiles),measurement,setting,value
"CN(C)CC(=O)Nc1c(O)c2c(c(N(C)C)c1Cl)CC1CC3[C@H](N(C)C)C(O)=C(C(N)=O)C(=O)[C@@]3(O)C(O)=C1C2=O (stereo partly drawn) [B, [4S-(4α,12aα)]-8-Chloro-4,7-(dimethylamino)-9-[[(dimethylamino)acetyl]amino]-1,4,4a,5,5a,6,11,12a-octahydro-3,10,12,12a-tetrahydroxy-1,11-dioxo-2-naphthacenecarboxamide]",MIC,"[1]; Staphylococcus aureus, UBMS887TETK, 18 h",2 µg/mL
same,MIC,"[2]; Staphylococcus aureus, 18 h",8 µg/mL
same,MIC,[3]; [33],32 µg/mL
same,MIC,"[4]; Escherichia coli, 18 h",> 32 µg/mL
same,MIC,[5],0.12 µg/mL
same,MIC,"[6]; Staphylococcus aureus, IVES2943, 18 h",4 µg/mL
same,MIC,"[7]; Escherichia coli, UBMS892TETSENS, 18 h, read-out: MIC",16 µg/mL
same,MIC,"[8]; Staphylococcus aureus, IVES1983, 18 h",4 µg/mL
same,MIC,[9]; [33],4 µg/mL
same,MIC,"[10]; Staphylococcus aureus, UBMS901TETM, 18 h",0.5 µg/mL
same,MIC,"[11]; Escherichia coli, ATCC25922, 18 hours at 35° C., read-out: MIC",8 µg/mL
same,MIC,"[12]; Staphylococcus aureus, 18 h",0.12 µg/mL
same,MIC,[13],> 32 µg/mL
same,MIC,[14],0.5 µg/mL
same,MIC,[15],2 µg/mL
same,MIC,"[16]; Staphylococcus aureus, UBMS885TETM, 18 h",0.25 µg/mL
same,MIC,"[17]; Escherichia coli, PRP1TETA, 18 h",16 µg/mL
same,MIC,"[18]; Staphylococcus aureus, UBMS903, 18 h",0.12 µg/mL
same,MIC,"[19]; Escherichia coli, BAJ9003IMPMUT, 18 h",0.12 µg/mL
same,MIC,"[20]; Escherichia coli, UBMS891TETM, 18 h",32 µg/mL
same,MIC,"[21]; Staphylococcus aureus, ATCC29213, 18 h",0.25 µg/mL
same,MIC,"[22]; Escherichia coli, UBMS881TETB, 18 h",> 32 µg/mL
same,MIC,"[23]; Streptococcus pyogenes, AVHAH883, 18 hours at 35° C., read-out: MIC",0.5 µg/mL
same,MIC,"[24]; Escherichia coli, UBMS904TETM, 18 h",> 32 µg/mL
same,MIC,"[25]; Escherichia coli, UBMS905SENS, read-out: MIC",32 µg/mL
same,MIC,"[26]; Escherichia coli, J3272TETD, 18 h",32 µg/mL
same,MIC,"[27]; Staphylococcus aureus, UBMS884, 18 hours at 35° C., read-out: MIC",0.25 µg/mL
same,MIC,"[28]; Enterococcus, 12201, 18 h",0.12 µg/mL
same,MIC,[29],0.12 µg/mL
same,MIC,[30]; 18 h,> 32 µg/mL
same,MIC,"[31]; Escherichia coli, J3272TETC, 18 h",16 µg/mL
same,MIC,"[32]; Staphylococcus aureus, UBMS902TETM, 18 h",0.25 µg/mL
"CN(C)CC(=O)Nc1c(Cl)cc2c(c1O)C(=O)C1=C(O)[C@]3(O)C(=O)C(C(N)=O)=C(O)[C@@H](N(C)C)C3CC1C2 (stereo partly drawn) [C, [4S-(4α,12aα)]-8-Chloro-4-(dimethylamino)-9-[[(dimethylamino)acetyl]amino]-1,4,4a,5,5a,6,11,12a-octahydro-3,10,12,12a-tetrahydroxy-1,11-dioxo-2-naphthacenecarboxamide]",MIC,[1],0.25 µg/mL
same,MIC,[2],1 µg/mL
same,MIC,[3],1 µg/mL
same,MIC,[4],1 µg/mL
same,MIC,[5],0.5 µg/mL
same,MIC,"[6]; S. aureus IVES 2943, 18 hours at 35° C.",4 µg/mL
same,MIC,[7],1 µg/mL
same,MIC,"[8]; S. aureus IVES 1 983, 18 hours at 35° C.",4 µg/mL
same,MIC,[9],0.5 µg/mL
same,MIC,[10],4 µg/mL
same,MIC,[11]; 18 hours at 35° C.,0.5 µg/mL
same,MIC,[12],0.12 µg/mL
same,MIC,[13],> 32 µg/mL
same,MIC,[14],0.05 µg/mL
same,MIC,[15],0.25 µg/mL
same,MIC,"[16]; S. aureus UBMS 88-5 Tet M, 18 hours at 35° C.",2 µg/mL
same,MIC,[17],8 µg/mL
same,MIC,"[18]; S. aureus UBMS 90-3, 18 hours at 35° C.",0.12 µg/mL
same,MIC,[19],0.12 µg/mL
same,MIC,[20],0.25 µg/mL
same,MIC,[21],0.25 µg/mL
same,MIC,[22],1 µg/mL
same,MIC,[23]; 18 hours at 35° C.,0.5 µg/mL
same,MIC,[24],0.5 µg/mL
same,MIC,[25],1 µg/mL
same,MIC,"[26]; E. coli J3272 Tet D, 18 hours at 35° C.",0.5 µg/mL
same,MIC,[27]; 18 hours at 35° C.,0.12 µg/mL
same,MIC,[28],8 µg/mL
same,MIC,[29],0.03 µg/mL
same,MIC,[30],8 µg/mL
same,MIC,"[31]; E. coli J3272 Tet C, 18 hours at 35° C.",8 µg/mL
same,MIC,[32],1 µg/mL
